Assay results: patent US8367606B2, “Method and compositions for prevention and treatment of diabetic and aged skin” (HealOr Ltd., priority 2005, dated 2013)

Assays:
[1] = system: primary mouse keratinocytes; test: Filaggrin expression in differentiating keratinocytes (Western blot of cytoskeletal fraction); type: cell-based; settings: 50, 150 and 300 nM; 0.12 mM Ca2+
Procedure: Primary mouse keratinocytes were cultured in 0.05 mM Ca^+2 MEM and differentiation was induced by elevating Ca^+2 concentrations to 0.12 mM. Keratinocytes were treated with either PBS (control) or different concentrations (50, 150 and 300 nM) of troglitazone, a PPARγ activator. The cells were lysed and the cytoskeletal fraction was subjected to SDS-PAGE and blotted with anti-filaggrin antibody.

[2] = system: damaged skin from diabetic (STZ injected) C57BL/6J mice; test: Reconstruction of the hypodermis layer in damaged diabetic skin (H&E histology); type: in vivo; settings: 7-9 days treatment; insulin 0.1 unit + peptide 1 μM, or adipsin 1 μM
Procedure: Damaged skin from diabetic (STZ injected) C57BL/6J mice was treated with either PBS (control); a mixture of insulin (0.1 unit) and the N-myristoylated PKCα pseudosubstrate peptide of SEQ ID NO: 1 (1 μM); or adipsin (1 μM) for 7-9 days. Skin biopsies were then collected and embedded in paraffin, and histological sections were performed and stained with H&E. The sections were analyzed for presence of the hypodermis layer presented as a continuous layer of adipocytes, and the percent of total animals per each group with fully reconstituted hypodermis is shown in FIGS. 11A-11B.

[3] = system: damaged skin of diabetic (STZ injected) C57BL/6J mice; test: Inflammatory response in damaged skin of diabetic mice (H&E histology, abscess formation and leukocytosis); type: in vivo; settings: adiponectin 0.1 μg/ml for 7 days; non-treated control 90%; severe = both abscess and leukocytosis
Procedure: Damaged skin of diabetic (STZ injected) C57BL/6J mice was treated with either PBS (control) or adiponectin (0.1 μg/ml) for 7 days (total n=18). Thereafter, skin biopsies were collected, embedded in paraffin, and analyzed for inflammation by H&E histological staining. Inflammation was graded by abscess formation and excessive leukocytosis in the skin and proximal blood vessels, and severe inflammation was considered when both abscess and leukocytosis were apparent.
In the next step, damaged skin from diabetic (STZ injected) C57BL/6J mice was treated with either PBS (control); a mixture of insulin (0.1 unit) and the N-myristoylated PKCα pseudosubstrate peptide of SEQ ID NO: 1 (1 μM); or Copolymer-1 (Teva Pharmaceutical Industries, Israel), (55 μg/ml) for 9 days (n=6 per each group). […] Thereafter, skin biopsies were collected, embedded in paraffin, and analyzed for inflammation by H&E histological staining. Inflammation was graded as described above.

Molecule: Cc1c(C)c2c(c(C)c1O)CCC(C)(COc1ccc(CC3SC(=O)NC3=O)cc1)O2 (stereo not drawn) [troglitazone, 5-(4-(6-hydroxy-2,5,7,8-tetramethylchroman-2-yl-methoxy)benzyl)-2,4-thiazolidinedione]
- filaggrin expression (terminal differentiation marker, FIG. 12) [1]: upregulation of filaggrin expression

Molecule: adipsin: adipokine, complement factor D secreted by adipocytes
- reconstitution of the hypodermis layer (FIGS. 11A-11B) [2]: can reconstruct the hypodermal subcutaneous layer

B1: adiponectin: adipokine, a bioactive molecule secreted by adipocytes (protein, UniProt Q15848 19-244, looked up)
Adiponectin: ETTTQGPGVLLPLPKGACTGWMAGIPGHPGHNGAPGRDGRDGTPGEKGEKGDPGLIGPKGDIGETGVPGAEGPRGFPGIQGRKGEPGEGAYVYRSAFSVGLETYVTIPNMPIRFTKIFYNQQNHYDGSTGKFHCNIPGLYYFAYHITVYMKDVKVSLFKKDKAMLFTYDQYQENNVDQASGSVLLHLEVGDQVWLQVYGEGERNGLYADNDNDSTFTGFLLYHDTN
- percent of animals exhibiting severe inflammation of the skin [3]: 20%
